What was measured:
[1] = Measure of pH and EPA residual after neutral (water) dissolution and size exclusion filtration; details: 22 g water 130° C., 250 psi; receiver 10 g of 360 mM NaOH, 200 mM TRIS, 268 μM EDTA; two 20 μm frits
Experimental: A fluid path syringe was filled with 22 g of 18.2 MΩcm water and 10 g of 360 mM NaOH, 200 mM TRIS and 268 μM EDTA was placed in the fluid path receiver. A mixture of ^12C pyruvic acid and EPA were in the approximate ratio of 53:1 was placed in the sample container of the fluid path. The water in the syringe was heated to 130° C. and was pressurized to 250 psi. The filter body was filled with two frits used as particle size exclusion filters (Varian, part number 12131043, 1.5″ diameter, average pore size 20 μm).

[2] = pH-solubility profile of the EPA; assay type: physicochemical
From the text: In an exemplary embodiment of the invention sterile deionized water is placed in the syringe of the sterile fluid path (SFP), a sample of ^13CPA mixed with EPA is placed in the sample container and NaOH, TRIS, and EDTA are placed in the receiver. Size exclusion filters are placed in the filter cartridge. In this embodiment, the pH-solubility profile of the EPA is considered.

| pH of resulting solution in the receiver [1] | solubility in aqueous solutions ([2]; above pH 4) | particulate diameter ([2]; pH less than 4) | solubility in aqueous solution ([2]; pH less than 4) | Molecule |
| --- | --- | --- | --- | --- |
| 7.97 |  |  |  | CC(=O)C(=O)O [^12C pyruvic acid] |
|  | soluble | greater than or equal to 10 microns | predominantly insoluble | tris {8-carboxyl-2,2,6,6-tetra[2-(1-methoxyethyl)]-benzo(1,2-d:4,5-d′)bis(1,3)dithiole-4-yl}methyl sodium salt [EPA] |
